In patent US20250333419A1, “BICYCLIC COMPOUNDS AS INHIBITORS OF WRN” (Incyte Corporation, priority 2023, published 2025):
One block for each molecule: values may come before it.

What was measured:
[1] = biological target: T1, WRN (Homo sapiens, UniProt Q14191); test: WRN ATPase activity assay (ADP-Glo); format: biochemical; settings: IC50, 1-hr pre-incubation with enzyme; geometric means of at least 2 independent replicates
T1 construct: A His-tagged construct of WRN (AA S2-S1235) was produced and used for the ATPase assay; His; made in house; host or cells: Sf9 insect cells (baculovirus)
T1 sequence (Q14191 2-1235): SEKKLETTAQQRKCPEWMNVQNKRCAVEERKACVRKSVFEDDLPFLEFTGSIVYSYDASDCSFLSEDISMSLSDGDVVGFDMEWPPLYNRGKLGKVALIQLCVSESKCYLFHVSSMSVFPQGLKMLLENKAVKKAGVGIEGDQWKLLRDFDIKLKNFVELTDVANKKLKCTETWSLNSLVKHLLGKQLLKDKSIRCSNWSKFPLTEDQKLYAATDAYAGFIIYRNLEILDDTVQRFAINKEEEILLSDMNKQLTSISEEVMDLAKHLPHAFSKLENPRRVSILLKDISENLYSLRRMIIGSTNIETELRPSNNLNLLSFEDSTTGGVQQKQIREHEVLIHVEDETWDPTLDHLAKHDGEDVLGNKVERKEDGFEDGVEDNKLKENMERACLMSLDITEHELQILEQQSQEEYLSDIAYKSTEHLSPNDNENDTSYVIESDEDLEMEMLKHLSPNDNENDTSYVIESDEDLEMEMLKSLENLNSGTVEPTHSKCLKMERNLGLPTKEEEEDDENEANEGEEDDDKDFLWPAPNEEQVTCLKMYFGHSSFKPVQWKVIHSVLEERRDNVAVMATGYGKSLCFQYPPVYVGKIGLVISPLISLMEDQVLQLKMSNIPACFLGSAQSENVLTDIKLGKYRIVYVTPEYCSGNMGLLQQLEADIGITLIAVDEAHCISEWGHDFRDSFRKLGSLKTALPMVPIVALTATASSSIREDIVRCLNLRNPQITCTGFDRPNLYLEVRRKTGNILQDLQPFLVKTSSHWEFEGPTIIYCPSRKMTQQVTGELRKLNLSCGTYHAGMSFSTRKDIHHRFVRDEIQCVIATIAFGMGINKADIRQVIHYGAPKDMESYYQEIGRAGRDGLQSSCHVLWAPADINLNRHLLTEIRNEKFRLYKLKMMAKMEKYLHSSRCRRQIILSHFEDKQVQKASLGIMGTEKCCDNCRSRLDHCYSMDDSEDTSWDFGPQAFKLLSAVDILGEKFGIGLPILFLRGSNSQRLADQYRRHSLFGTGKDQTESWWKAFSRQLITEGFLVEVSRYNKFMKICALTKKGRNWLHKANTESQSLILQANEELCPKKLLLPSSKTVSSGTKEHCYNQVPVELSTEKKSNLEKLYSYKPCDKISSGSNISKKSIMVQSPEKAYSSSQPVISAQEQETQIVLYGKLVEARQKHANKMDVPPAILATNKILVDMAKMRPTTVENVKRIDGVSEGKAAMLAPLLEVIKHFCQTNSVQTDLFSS
Description: Compounds of the Examples were tested for WRN ATPase activity. WRN ATPase activity catalyzes ATP hydrolysis to produce ADP and phosphate. DNA encoding the target protein, 6×HIS-TEV-WRN-517-945, was produced, cloned and transfected as detailed in Example D. The amount of ADP produced was measured using ADP-Glo™ Kinase Assay kit from Promega Corporation in a Greiner white regular volume 384 wells assay plate (Greiner #781075). Data was normalized to a standard curve generated using various ADP concentrations and the corresponding luminescent signal intensities at each concentration. The assay conditions were optimized for enzyme concentration (WRN), substrate concentrations (ATP & dsDNA), and the linearity of the ATPase reaction, in the following assay buffer: 50 mM Tris-HCl, pH-7.5, 2 mM MgCl2, 50 mM NaCl, 1 mM EGTA, 0.01% P-20, 0.05% BSA, and 2 mM DTT prepared with nuclease free water.
A serial dilution (1:3 scheme) of the compounds were prepared in neat DMSO, with 100 nL of the compounds dispensed in the 384 wells assay plate. An 1-hr pre-incubation of the compounds with enzyme was included. A His-tagged construct of WRN (AA S2-S1235) was produced and used for the ATPase assay. Maximum inhibition control wells were set up with the addition of only assay buffer, and no inhibition control wells were set up with neat DMSO without test compounds. The reaction was initiated by addition of 5 μL substrate mix (200 μM ultrapure ATP, and 50 nM dsDNA prepared in assay buffer) and incubated at 25° C. for 35 min. A forked dsDNA oligomer substrate was prepared by annealing equal amounts of oligo GPat-1 ([BHQ2][…]) and oligo GPat-2 ([…][TAM]) and was used as dsDNA substrate for WRN ATPase assay. A typical ATPase reaction consists of 25 nM forked dsDNA, 100 μM ATP, and 1 nM WRN prepared in assay buffer. The WRN ATPase reaction was stopped by the addition of 5 μL of ADP-Glo Reagent from ADP-Glo™ Kinase Assay kit and incubated for 40 min to deplete the unreacted ATP. Afterwards, 5 μL of Kinase Detection Reagent from the ADP-Glo™ Kinase Assay kit was added and incubated for 1 hr for the development of luminescence signal.
Luminesce signals were measured on BMG PHERAstar FSX using luminescence protocol. Data analysis was carried out using Genedata software following % of control normalization. Fitting parameters include dose response IC50, Hill slope (n), maximum inhibition (S∞), and minimum inhibition (S0). The reported IC50 values for compounds in this invention are the geometric means of at least 2 independent replicates.

[2] = biological target: T1, WRN; test: WRN Helicase activity assay (fluorescence DNA unwinding); format: biochemical; settings: IC50, 1-hr pre-incubation with enzyme; geometric means of at least 2 independent replicates
Description: Compounds of the examples were tested for WRN helicase activity. DNA encoding the target protein, 6×HIS-TEV-WRN-517-945, was produced, cloned and transfected as detailed in Example D. To determine the inhibitory properties of the compounds, a 384 wells plate-based Helicase assay was set up to measure the extent of DNA unwinding (Helicase) activity of WRN. The WRN Helicase assay was designed to measure increase in fluorescence signal using a fluorescence based, donor-quencher paired forked dsDNA oligomer substrate (custom synthesis from Sigma-Aldrich) prepared by annealing equal amounts of oligo GPat-1 ([BHQ2][…]) and oligo GPat-2 ([…][TAM]). Continuous measurement of fluorescent signal was used to optimize the buffer conditions, concentration of enzyme (WRN), concentration of substrates (ATP & dsDNA), and the linearity of the Helicase reaction. All solutions were prepared in the following assay buffer: 50 mM Tris-HCl, pH-7.5, 2 mM MgCl2, 50 mM NaCl, 1 mM EGTA, 0.01% P-20, 0.05% BSA, and 2 mM DTT prepared with nuclease free water.
A serial dilution (1:3 scheme) of the compounds was prepared in neat DMSO and 100 nL of the compounds was dispensed in the Greiner black low volume (Greiner #784076) 384 wells assay plate. An 1-hr pre-incubation of the compounds with enzyme was included. A His-tagged construct of WRN (AA S2-S1235) was produced and used for the ATPase assay. Maximum inhibition control wells were set up with the addition of only assay buffer, and no inhibition control wells were set up with neat DMSO without test compounds. The reaction was initiated by addition of 5 μL substrate mix (200 μM ultrapure ATP, and 50 nM dsDNA prepared in assay buffer) and incubated at 25° C. for 35 min. A typical Helicase reaction consists of 25 nM forked dsDNA, 100 μM ATP, and 1 nM WRN prepared in assay buffer. The WRN Helicase reaction was quenched by the addition of 5 μL ‘STOP’ solution containing 100 mM EDTA (final EDTA concentration 33.33 mM) prepared in assay buffer. The plates were read on BMG PHERAstar FSX using 540/590 module to measure an increase of fluorescence. Data analysis was carried out using the Genedata software following % of control normalization. Fitting parameters include dose response IC50, Hill slope (n), maximum inhibition (S∞), and minimum inhibition (S0). The reported IC50 values for compounds in this invention are the geometric means of at least 2 independent replicates.

SMILES: C=CC(=O)Nc1ccccc1-c1c(CC)n(CC(=O)Nc2ccc(C(F)(F)F)cc2)c2nc(C3CC3)nn2c1=O [Example 17, N-(2-(2-Cyclopropyl-5-ethyl-7-oxo-4-(2-oxo-2-((4-(trifluoromethyl)phenyl)amino)ethyl)-4,7-dihydro-[1,2,4]triazolo[1,5-a]pyrimidin-6-yl)phenyl)acrylamide]
IC50 [1]: < 100 nM
IC50 [2]: < 100 nM

SMILES: C=CC(=O)Nc1ccccc1-c1c(CC)n(CC(=O)Nc2ccc(C(F)(F)F)cc2)c2nc(C3CCC3)nn2c1=O [Example 19, N-(2-(2-Cyclobutyl-5-ethyl-7-oxo-4-(2-oxo-2-((4-(trifluoromethyl)phenyl)amino)ethyl)-4,7-dihydro-[1,2,4]triazolo[1,5-a]pyrimidin-6-yl)phenyl)acrylamide]
IC50 [1]: 100 to 500 nM
IC50 [2]: 100 to 500 nM

SMILES: C=CC(=O)Nc1ccccc1-c1c(CC)n(CC(=O)Nc2ccc(C(F)(F)F)cc2)c2nc(C3CCCCC3)nn2c1=O [Example 20, N-(2-(2-Cyclohexyl-5-ethyl-7-oxo-4-(2-oxo-2-((4-(trifluoromethyl)phenyl)amino)ethyl)-4,7-dihydro-[1,2,4]triazolo[1,5-a]pyrimidin-6-yl)phenyl)acrylamide]
IC50 [1]: 100 to 500 nM
IC50 [2]: 100 to 500 nM

SMILES: C=CC(=O)Nc1ccccc1-c1c(CC)n(CC(=O)Nc2ccc(C(F)(F)F)cc2)c2nc(-c3cccs3)nn2c1=O [Example 22, N-(2-(5-Ethyl-7-oxo-4-(2-oxo-2-((4-(trifluoromethyl)phenyl)amino)ethyl)-2-(thiophen-2-yl)-4,7-dihydro-[1,2,4]triazolo[1,5-a]pyrimidin-6-yl)phenyl)acrylamide]
IC50 [1]: < 100 nM
IC50 [2]: < 100 nM

SMILES: C=CC(=O)Nc1ccccc1-c1c(CC)n(CC(=O)Nc2ccc(C(F)(F)F)cc2)c2nc(C3CCNCC3)nn2c1=O [Example 24, N-(2-(5-Ethyl-7-oxo-4-(2-oxo-2-((4-(trifluoromethyl)phenyl)amino)ethyl)-2-(piperidin-4-yl)-4,7-dihydro-[1,2,4]triazolo[1,5-a]pyrimidin-6-yl)phenyl)acrylamide]
IC50 [1]: 100 to 500 nM
IC50 [2]: 100 to 500 nM

SMILES: C=CC(=O)Nc1ccccc1-c1c(CC)n(CC(=O)Nc2ccc(C(F)(F)F)cc2)c2nc(C3CCN(C(=O)C=C)CC3)nn2c1=O [Example 25, N-(2-(2-(1-Acryloylpiperidin-4-yl)-5-ethyl-7-oxo-4-(2-oxo-2-((4-(trifluoromethyl)phenyl)amino)ethyl)-4,7-dihydro-[1,2,4]triazolo[1,5-a]pyrimidin-6-yl)phenyl)acrylamide]
IC50 [1]: < 100 nM
IC50 [2]: < 100 nM

Continued, values first:

IC50 [1]: < 100 nM
IC50 [2]: < 100 nM
SMILES: C=CC(=O)Nc1ccccc1-c1c(CC)n(CC(=O)Nc2ccc(C(F)(F)F)cc2Cl)c2nc(C3=CCOCC3)nn2c1=O [Example 16, N-(2-(4-(2-((2-Chloro-4-(trifluoromethyl)phenyl)amino)-2-oxoethyl)-2-(3,6-dihydro-2H-pyran-4-yl)-5-ethyl-7-oxo-4,7-dihydro-[1,2,4]triazolo[1,5-a]pyrimidin-6-yl)phenyl)acrylamide]

IC50 [1]: 500 to 1000 nM
IC50 [2]: 500 to 1000 nM
SMILES: C=CC(=O)Nc1ccccc1-c1c(CC)n(CC(=O)Nc2ccc(C(F)(F)F)cc2)c2nc(C)nn2c1=O [Example 18, N-(2-(5-Ethyl-2-methyl-7-oxo-4-(2-oxo-2-((4-(trifluoromethyl)phenyl)amino)ethyl)-4,7-dihydro-[1,2,4]triazolo[1,5-a]pyrimidin-6-yl)phenyl)acrylamide]

IC50 [1]: 100 to 500 nM
IC50 [2]: 100 to 500 nM
SMILES: C=CC(=O)Nc1ccccc1-c1c(CC)n(CC(=O)Nc2ccc(C(F)(F)F)cc2Cl)c2nc(C(C)C)nn2c1=O [Example 21, N-(2-(4-(2-((2-Chloro-4-(trifluoromethyl)phenyl)amino)-2-oxoethyl)-5-ethyl-2-isopropyl-7-oxo-4,7-dihydro-[1,2,4]triazolo[1,5-a]pyrimidin-6-yl)phenyl)acrylamide]

IC50 [1]: 100 to 500 nM
IC50 [2]: 500 to 1000 nM
SMILES: C=CC(=O)Nc1ccccc1-c1c(CC)n(CC(=O)Nc2ccc(C(F)(F)F)cc2)c2nc(C3CCOCC3)nn2c1=O [Example 23, N-(2-(5-Ethyl-7-oxo-4-(2-oxo-2-((4-(trifluoromethyl)phenyl)amino)ethyl)-2-(tetrahydro-2H-pyran-4-yl)-4,7-dihydro-[1,2,4]triazolo[1,5-a]pyrimidin-6-yl)phenyl)acrylamide]
